# From patent publication US10377770B2 (Novartis AG, priority 2015, dated 2019)
# Target: C-Raf FL (full length CRAF with Y340E and Y341E activating mutations, co-expressed with h14-3-3 zeta) (Homo sapiens (Human), UniProt P04049, Y340E/Y341E)
# Assay: In vitro Raf activity determination, AlphaScreen p-MEK readout, c-Raf (C-Raf FL)
# Assay type: biochemical
# Settings: c-Raf approximately 4 nM, ATP 1 μM, pre-incubation 60 minutes, reaction 1 hour
# Summary of the method: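 Full-length C-Raf (~4 nM) pre-incubated 60 min at room temperature with compound and kinase-dead biotinylated MEK1 (~10 nM) in Tris pH 7.5, 15 mM MgCl2, BSA, DTT. Reaction started with 1 μM ATP and run 1 h at room temperature. Phospho-MEK detected by AlphaScreen with anti-p-MEK antibody.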
row,Compound,IC50
1,"Cc1ncc(NC(=O)c2cccc(C(F)(F)F)c2)cc1-c1ccc2c(c1)N1CCOCC1C1(COC1)C2 (racemic) [Example 56, (rac)-N-(6-methyl-5-(2,4,4a,6-tetrahydro-1H-spiro[[1,4]oxazino[4,3-a]quinoline-5,3′-oxetan]-9-yl)pyridin-3-yl)-3-(trifluoromethyl)benzamide]",71 pM
2,"Cc1ccc(NC(=O)c2ccnc(C(C)(F)F)c2)cc1-c1cc2c(cc1F)C[C@](F)(CO)[C@H]1COCCN21 [Example 476, N-(3-((4aR,5R)-5,8-difluoro-5-(hydroxymethyl)-1,2,4,4a,5,6-hexahydro-[1,4]oxazino[4,3-a]quinolin-9-yl)-4-methylphenyl)-2-(1,1-difluoroethyl)iso-nicotinamide]",200 pM
3,"Cc1ccc(NC(=O)c2ccnc(C(C)(F)F)c2)cc1-c1ccc2c(c1)N1CCOC[C@@H]1C[C@@H]2O (single isomer, unassigned) [Example 14]",34 pM
4,"CCN1C(=O)Cc2nncn2-c2cc(-c3cc(NC(=O)c4ccnc(C(F)(F)F)c4)ccc3C)cnc21 [Example 237, N-(3-(6-ethyl-5-oxo-5,6-dihydro-4H-pyrido[2,3-b][1,2,4]triazo1o[4,3-d][1,4]diazepin-9-yl)-4-methylphenyl)-2-(trifluoromethyl) isonicotinamide]",1300 pM
5,"CCN1C(=O)[C@@H]2[C@H]3COC[C@H]3[C@@H]2c2cc(-c3cc(NC(=O)c4ccnc(C(C)(F)F)c4)ccc3C)cnc21 [Example 269, 2-(1,1-difluoroethyl)-N-(3-((6aS, 6bS, 9aS, 9bS)-5-ethyl-6-oxo-5,6,6a,6b,7,9,9a,9b-octahydrofuro[3′,4′: 3,4]cyclobuta[1,2-c][1,8]naphthyridin-2-yl)-4-methylphenyl) isonicotinamide]",300 pM
6,"CCN1C(=O)[C@@H]2COCC[C@H]2c2cc(-c3cc(NC(=O)c4cncc(C(F)(F)F)c4)ccc3C)cnc21 [Example 303, N-(3-((4aS,10bR)-6-ethyl-5-oxo-2,4,4a,5,6,10b-hexahydro-1H-pyrano[3,4-c][1,8]naphthyridin-9-yl)-4-methylphenyl)-5-(trifluoromethyl) nicotinamide]",100 pM
7,"Cc1ccc(NC(=O)c2ccnc(C(C)(F)F)c2)cc1-c1ccc2c(c1)N1CCOCC1CC2O (racemic) [Example 16, (rac)-2-(1,1-difluoroethyl)-N-(3-(6-hydroxy-1,2,4,4a,5,6-hexahydro-[1,4]oxazino[4,3-a]quinolin-9-yl)-4-methylphenyl)isonicotinamide]",55 pM
8,"CCN1C(=O)[C@H]2[C@@H]3COC[C@@H]3[C@H]2c2cc(-c3cc(NC(=O)c4ccnc(C(F)(F)F)c4F)ccc3C)cnc21 [Example 276, N-(3-((6aR, 6bR, 9aR, 9bR)-5-ethyl-6-oxo-5,6,6a,6b,7,9,9a,9b-octahydrofuro[3′,4′: 3,4]cyclobuta[1,2-c][1,8]naphthyridin-2-yl)-4-methylphenyl)-3-fluoro-2-(trifluoromethyl) isonicotinamide]",500 pM
9,"Cc1ccc(NC(=O)c2ccnc(C(C)(F)F)c2)cc1-c1ccc2c(c1)N1CCOC[C@H]1C(CO)(CO)C2 (single isomer, unassigned) [Example 52]",160 pM
10,"Cc1ncc(NC(=O)c2cccc(C(F)(F)F)c2)cc1-c1cnc2c(c1)N1CCOC[C@H]1C[C@@H]2O (racemic) [Example 104, rac-cis-N-(5-(6-Hydroxy-1,2,4,4a,5,6-hexahydro-[1,4]oxazino[4,3-a][1,5]naphthyridin-9-yl)-6-methylpyridin-3-yl)-3-(trifluoromethyl)benzamide]",44 pM
11,"N-(3-(8-(2- hydroxyethyl)-7- oxo- 1,2,4,5,5a,6,7,8- octahydropyrido[3′, 2′:2,3][1,4]diazepino [1,7- d][1,4]oxazepin- 11-yl)-4- methylphenyl)-2- (trifluoromethyl) isonicotinamide [Example 320]",800 pM
12,"Cc1ccc(NC(=O)c2ccnc(C(F)(F)F)c2)cc1-c1cnc2c(c1)N1CCOC[C@@H]1C1(COC1)C2 [Example 155, (S)-N-(4-methyl-3-(1′,2′,4′,4a′-tetrahydro-6′H-spiro[oxetane-3,5′-[1,4]oxazino[4,3-a][1,5]naphthyridin]-9′-yl)phenyl)-2-(trifluoromethyl)isonicotinamide]",360 pM
13,"Cc1ccc(NC(=O)c2ccnc(C(F)(F)F)c2)cc1-c1cnc2c(c1)N1CCOCC1C(C)(C)C2O (single isomer, unassigned) [Example 334, N-(3-(6-hydroxy-5,5-dimethyl-1,2,4,4a,5,6-hexahydro-[1,4]oxazino[4,3-a][1,5]naphthyridin-9-yl)-4-methylphenyl)-2-(trifluoromethyl)isonicotinamide]",400 pM
14,"Cc1ncc(NC(=O)c2cccc(C(F)(F)F)c2)cc1-c1cnc2c(c1)N1CCOC[C@H]1C[C@@H]2O (racemic) [Example 38, (rac)-(cis)-N-(5-(6-hydroxy-1,2,4,4a,5,6-hexahydro-[1,4]oxazino[4,3-a][1,5]naphthyridin-9-yl)-6-methylpyridin-3-yl)-3-(trifluoro-methyl)benzamide]",30 pM
15,"Cc1ncc(NC(=O)c2cccc(C(F)(F)F)c2)cc1-c1cc(F)c2c(c1)N1CCOC[C@H]1[C@](F)(CO)C2 [Example 421, N-(5-((4aS,5S)-5,7-difluoro-5-(hydroxymethyl)-1,2,4,4a,5,6-hexahydro-[1,4]oxazino[4,3-a]quinolin-9-yl)-6-methylpyridin-3-yl)-3-(trifluoromethyl)benzamide]",800 pM
16,"CCN1C(=O)Cc2nncn2-c2cc(-c3cc(NC(=O)c4cccc(C(F)(F)F)c4)cnc3C)cnc21 [Example 238, N-(5-(6-ethyl-5-oxo-5,6-dihydro-4H-pyrido[2,3-b][1,2,4]triazo1o[4,3-d][1,4]diazepin-9-yl)-6-methylpyridin-3-yl)-3-(trifluoromethyl) benzamide]",2700 pM
17,"Cc1ccc(NC(=O)c2ccnc(C(C)(C)F)c2)cc1-c1cnc2c(c1)N1CCOC[C@H]1C[C@H]2OCCO [Example 511, 2-(2-fluoropropan-2-yl)-N-(3-((4aR,6R)-6-(2-hydroxyethoxy)-1,2,4,4a,5,6-hexahydro-[1,4]oxazino[4,3-a][1,5]naphthyridin-9-yl)-4-methylphenyl)iso-nicotinamide]",200 pM
18,"Cc1ccc(NC(=O)c2ccnc(C(C)(C)F)c2)cc1-c1cc(F)c2c(c1)N1CCOC[C@@H]1[C@@](F)(CO)C2 [Example 427, N-(3-((4aR,5R)-5,7-difluoro-5-(hydroxymethyl)-1,2,4,4a,5,6-hexahydro-[1,4]oxazino[4,3-a]quinolin-9-yl)-4-methylphenyl)-2-(2-fluoropropan-2-yl)isonicotinamide]",600 pM
19,"Cc1ncc(NC(=O)c2cccc(C(F)(F)F)c2)cc1-c1cc(F)c2c(c1)N1CCOC[C@@H]1[C@@](F)(CO)C2 [Example 426, N-(5-((4aR,5R)-5,7-difluoro-5-(hydroxymethyl)-1,2,4,4a,5,6-hexahydro-[1,4]oxazino[4,3-a]quinolin-9-yl)-6-methylpyridin-3-yl)-3-(trifluoromethyl)benzamide]",400 pM
20,"Cc1ccc(NC(=O)c2cncc(C(F)(F)F)c2)cc1-c1ccc2c(c1)N1CCOC[C@H]1[C@](F)(CF)C2 [Example 469, N-(3-((4aS,5S)-5-fluoro-5-(fluoromethyl)-1,2,4,4a,5,6-hexahydro-[1,4]oxazino[4,3-a]quinolin-9-yl)-4-methylphenyl)-5-(trifluorometh-yl)nicotinamide]",1800 pM
21,Cc1ccc(NC(=O)c2ccnc(C(F)(F)F)c2)cc1-c1cc(F)c2c(c1)N1CCOC[C@H]1[C@](F)(CO)C2 [Example 419],500 pM
22,"CNC(=O)C1Cc2ncc(-c3cc(NC(=O)c4ccnc(C(C)(F)F)c4)ccc3C)cc2N2CCOCC12 (racemic) [Example 173, rac-9-(5-(2-(1,1-difluoroethyl)isonicotinamido)-2-methylphenyl)-N-methyl-1,2,4,4a,5,6-hexahydro-[1,4]oxazino[4,3-a][1,5]naphthyridine-5-carboxamide]",12 pM
23,"CCN1C(=O)C[C@@H]2COCCN2c2cc(-c3cc(NC(=O)c4ccnc(C(F)(F)F)c4F)ccc3C)cnc21 [Example 327, (R)-N-(3-(7-ethyl-6-oxo-2,4,4a,5,6,7-hexahydro-1H-[1,4]oxazino[4,3-d]pyrido[2,3-b][1,4]diazepin-10-yl)-4-methylphenyl)-3-fluoro-2-(trifluoromethyl) isonicotinamide]",300 pM
24,"Cc1ccc(NC(=O)c2ccnc(C(F)(F)F)c2)cc1-c1cnc2c(c1)N1CCOCC1CC2(F)F (racemic) [Example 111, rac-N-(3-(6,6-Difluoro-1,2,4,4a,5,6-hexahydro-[1,4]oxazino[4,3-a][1,5]naphthyridin-9-yl)-4-methylphenyl)-2-(trifluoromethyl)isonicotinamide]",5.4 pM
25,"Cc1ccc(NC(=O)c2ccnc(C(F)(F)F)c2)cc1-c1ccc2c(c1)N1CCOC[C@H]1[C@](F)(CF)C2 [Example 472, N-(3-((4aS,5S)-5-fluoro-5-(fluoromethyl)-1,2,4,4a,5,6-hexahydro-[1,4]oxazino[4,3-a]quinolin-9-yl)-4-methylphenyl)-2-(trifluoromethyl)iso-nicotinamide]",2000 pM
26,"Cc1ncc(NC(=O)c2ccnc(C(C)(C)F)c2)cc1-c1cnc2c(c1)[C@@H]1CCOC[C@H]1C(=O)N2CCO [Example 260, 2-(2-fluoropropan-2-yl)-N-(5-((4aS, 10bR)-66-(2-hydroxyethyl)-5-oxo-2,4,4a,5,6,10b-hexahydro-1H-pyrano[3,4-c][1,8]naphthyridin-9-yl)-6-methylpyridin-3-yl)isonicotinamide]",100 pM
27,"Cc1ccc(NC(=O)c2ccnc(C(C)(F)F)c2)cc1-c1ccc2c(c1)N1CCOC[C@H]1[C@](C)(N)C2 (racemic) [Example 92, (rac)-(syn)-N-(3-(5-amino-5-methyl-1,2,4,4a,5,6-hexahydro-[1,4]oxazino[4,3-a]quinolin-9-yl)-4-methylphenyl)-2-(1,1-difluoroethyl)isonicotinamide]",610 pM
